Where only a bound is given, the exact number is not on record here.

Test [1] deals with T1, Amine oxidase [flavin-containing] A (Homo sapiens, UniProt P21397).
T1 sequence (P21397 whole entry): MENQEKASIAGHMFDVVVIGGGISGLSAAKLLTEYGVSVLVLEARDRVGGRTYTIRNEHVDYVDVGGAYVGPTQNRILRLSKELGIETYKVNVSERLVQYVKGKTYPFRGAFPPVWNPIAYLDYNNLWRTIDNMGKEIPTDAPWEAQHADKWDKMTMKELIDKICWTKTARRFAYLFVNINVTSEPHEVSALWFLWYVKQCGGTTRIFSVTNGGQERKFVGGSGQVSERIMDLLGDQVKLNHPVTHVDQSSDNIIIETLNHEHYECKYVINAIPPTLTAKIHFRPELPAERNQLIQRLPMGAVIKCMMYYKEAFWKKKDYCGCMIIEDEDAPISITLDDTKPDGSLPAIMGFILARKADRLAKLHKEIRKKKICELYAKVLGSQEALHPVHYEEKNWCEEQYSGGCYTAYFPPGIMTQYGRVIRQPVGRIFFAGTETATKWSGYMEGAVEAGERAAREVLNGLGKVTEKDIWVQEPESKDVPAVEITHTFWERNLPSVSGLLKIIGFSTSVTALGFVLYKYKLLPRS
Description: Inhibition of MAOA (unknown origin) by luminiscent assay

The target of test [2] is T2, Amine oxidase [flavin-containing] B (Homo sapiens, UniProt P27338).
T2 sequence (P27338 whole entry): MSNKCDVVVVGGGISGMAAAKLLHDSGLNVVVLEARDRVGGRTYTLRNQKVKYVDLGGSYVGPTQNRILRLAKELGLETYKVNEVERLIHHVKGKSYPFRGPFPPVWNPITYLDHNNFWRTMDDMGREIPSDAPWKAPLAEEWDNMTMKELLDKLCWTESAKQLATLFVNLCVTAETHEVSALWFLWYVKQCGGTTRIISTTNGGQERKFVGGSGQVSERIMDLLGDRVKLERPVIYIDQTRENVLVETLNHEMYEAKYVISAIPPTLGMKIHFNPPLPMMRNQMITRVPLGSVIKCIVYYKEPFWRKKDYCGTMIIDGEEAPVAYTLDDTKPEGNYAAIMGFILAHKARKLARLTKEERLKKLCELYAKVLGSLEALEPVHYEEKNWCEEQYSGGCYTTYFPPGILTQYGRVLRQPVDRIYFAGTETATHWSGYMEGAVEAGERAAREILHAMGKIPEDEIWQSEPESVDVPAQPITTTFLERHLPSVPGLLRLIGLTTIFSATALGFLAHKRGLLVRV
Description: Inhibition of MAOB (unknown origin) by luminiscent assay

By IC50 is commonly meant the concentration that gives 50% inhibition. A higher IC50 goes with weaker potency. For `Nc1nnc(NCc2c(Cl)cccc2Oc2ccccc2)[nH]1`, the IC50 in test [1] and in test [2] was more than 100 µM each time.
For `COc1ccccc1CNc1n[nH]c(NCc2ccccc2OC)n1`, the IC50 in test [1] and in test [2] was more than 100 µM each time.

(Values after ChEMBL document CHEMBL3621154 (Medchemcomm, 2014).)
